This test has as its target human TLR7 (Homo sapiens (Human), UniProt Q9NYK1). Description: Test for evaluating the inhibition of the activation of human TLR7 (SEAP reporter, TLR7/NF-κB/SEAPorter HEK293 cell). The following applies: R-848 200 nmol/L; for inhibitory effect against TLR7 in the test for evaluating inhibition of the activation of TLR7: SEAP activity, result in words; for IC50: SEAP reporter. It is filed as cell-based. The procedure:
As human TLR7 expressing cell line, HEK293 cell line was bought from IMGENEX Corporation (TLR7/NF-ηB/SEAPorter™ HEK293 cell), which is human embryonic kidney cell line and stably expresses full-length human TLR7 gene and secreted alkaline phosphatase (SEAP) reporter gene under the transcriptional control of an NE-ηB response element. The TLR7/NF-ηB/SEAPorter™ HEK293 cell was cultivated with DMEM containing 10% fetal bovine serum (FBS) and 10 μg/mL blasticidin S at 37° C. in the presence of 5% CO2. The TLR7/NF-ηB/SEAPorter™ HEK293 cell was seeded into 96-well microtiter plate at 5×10^4 cell/90 μL/well, and the place was cultivated at 37° C. in a CO2 incubator overnight.
Each compound prepared in the Examples was evaluated by Test 1.

Each structure is given as a SMILES string.

Chain of human TLR7 (Q9NYK1 27-1049): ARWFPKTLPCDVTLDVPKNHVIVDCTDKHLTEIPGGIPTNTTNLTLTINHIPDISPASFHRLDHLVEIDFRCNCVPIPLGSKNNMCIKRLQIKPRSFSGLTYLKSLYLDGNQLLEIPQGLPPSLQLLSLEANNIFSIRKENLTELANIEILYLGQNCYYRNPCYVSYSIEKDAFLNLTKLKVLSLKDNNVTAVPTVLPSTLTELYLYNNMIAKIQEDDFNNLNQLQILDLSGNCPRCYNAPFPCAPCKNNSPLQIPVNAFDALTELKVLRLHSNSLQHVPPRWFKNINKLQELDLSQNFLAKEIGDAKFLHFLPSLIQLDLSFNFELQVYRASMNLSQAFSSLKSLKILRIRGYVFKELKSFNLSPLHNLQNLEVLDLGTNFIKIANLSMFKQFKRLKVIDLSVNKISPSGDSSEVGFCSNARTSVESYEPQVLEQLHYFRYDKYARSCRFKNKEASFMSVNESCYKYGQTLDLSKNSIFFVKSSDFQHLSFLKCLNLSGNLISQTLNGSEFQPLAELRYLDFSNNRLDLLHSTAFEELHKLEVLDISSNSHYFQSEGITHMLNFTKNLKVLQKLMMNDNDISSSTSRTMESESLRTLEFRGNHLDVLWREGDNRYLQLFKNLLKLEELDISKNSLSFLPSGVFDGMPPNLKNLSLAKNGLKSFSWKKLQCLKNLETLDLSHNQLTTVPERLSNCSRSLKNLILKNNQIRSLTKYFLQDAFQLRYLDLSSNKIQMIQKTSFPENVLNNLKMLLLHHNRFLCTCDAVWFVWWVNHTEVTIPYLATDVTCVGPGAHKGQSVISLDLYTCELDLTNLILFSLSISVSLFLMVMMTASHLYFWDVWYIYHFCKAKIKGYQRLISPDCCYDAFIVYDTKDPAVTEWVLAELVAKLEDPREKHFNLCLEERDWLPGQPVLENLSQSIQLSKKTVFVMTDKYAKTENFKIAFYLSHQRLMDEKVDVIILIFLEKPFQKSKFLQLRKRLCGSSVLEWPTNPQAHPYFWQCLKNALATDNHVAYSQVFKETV

For `CCOc1nc(N)c2nc(-c3cncc(F)c3)n(Cc3ccc(OCCN4CCCC4)cc3)c2n1` [Example 47, 2-Ethoxy-8-(5-fluoropyridin-3-yl)-9-{4-[2-(pyrrolidin-1-yl)ethoxy]benzyl}-9H-purine-6-amine], the “inhibitory effect against TLR7 in the test for evaluating inhibition of the activation of TLR7” value (from here on “inhibitory effect against TLR7”) was “potent inhibitory effect against TLR7” and 0.03 µM corresponded to half-maximal inhibition (IC50).
`CCOc1nc(N)c2nc(-c3cncc(F)c3)n(Cc3cccc(OCCN4CCCC4)c3)c2n1` [Example 51]: the “inhibitory effect against TLR7” value was “potent inhibitory effect against TLR7” and the IC50 was 0.059 µM.
As to `CCOc1nc(N)c2nc(-c3cncc(F)c3)n(Cc3ccc(OCCN(C)C)cn3)c2n1` [Example 56], the midpoint of inhibition, the IC50, lay at 0.66 µM. That is a sub-micromolar value.
Same read-out and setting: to `CCOc1nc(N)c2nc(-c3cncc(F)c3)n(Cc3ccc(OC4CCN(C)CC4)nc3)c2n1` [Example 60] belongs 0.23 µM; to `CCOc1nc(N)c2nc(-c3cncc(F)c3)n(Cc3ccc(N(C)CCN(C)C)nc3)c2n1` [Example 64, N-(5-{[6-Amino-2-ethoxy-8-(5-fluoropyridin-3-yl)-9H-purin-9-yl]methyl}pyridin-2-yl)-N,N′,N′-trimethylethane-1,2-diamine], 0.68 µM.
Still for that read-out and setting: under `CCOc1nc(N)c2nc(-c3cncc(F)c3)n(Cc3ccc(N4CCN(C)CC4)nc3)c2n1` [Example 65] stands 0.55 µM.
For `CCOc1nc(N)c2nc(-c3cncc(F)c3)n(Cc3ccc(O[C@@H]4CN5CCC4CC5)cc3)c2n1` [Example 66, 9-{4-[(3S)-1-Azabicyclo[2.2.2]oct-3-yloxy]benzyl}-2-ethoxy-8-(5-fluoropyridin-3-yl)-9H-purine-6-amine], the “inhibitory effect against TLR7” value is reported as “potent inhibitory effect against TLR7” and inhibition was half-maximal at 0.021 µM (IC50).
`CCOc1nc(N)c2nc(-c3cncc(F)c3)n(Cc3ccc(O[C@H]4CN5CCC4CC5)cc3)c2n1` [Example 67]: the “inhibitory effect against TLR7” value is “potent inhibitory effect against TLR7” and inhibition was half-maximal at 0.051 µM (IC50).
Compound `CCOc1nc(N)c2nc(-c3cncc(F)c3)n(Cc3ccc(N4CCN(C)CC4)cc3)c2n1` [Example 68, 2-Ethoxy-8-(5-fluoropyridin-3-yl)-9-[4-(4-methylpiperazin-1-yl)benzyl]-9H-purine-6-amine] gave an IC50 of 0.18 µM.
As to `COc1nc(C)c2nc(-c3cncc(F)c3)n(Cc3ccc(O[C@@H]4CN5CCC4CC5)nc3)c2n1` [Example 69, 9-({6-[(3S)-1-azabicyclo[2.2.2]oct-3-yloxy]pyridin-3-yl}methyl)-8-(5-fluoropyridin-3-yl)-2-methoxy-6-methyl-9H-purine], the “inhibitory effect against TLR7” value is given as “potent inhibitory effect against TLR7” and it took 0.13 µM to reach half-maximal inhibition (IC50).
In the same order, the values of `COc1nc(C)c2nc(-c3cncc(F)c3)n(Cc3ccc(O[C@H]4CN5CCC4CC5)nc3)c2n1` [Example 70] are “potent inhibitory effect against TLR7” and 0.11 µM.
In the same order, the values of `CCOc1nc(C)c2nc(-c3cncc(F)c3)n(Cc3ccc(O[C@@H]4CN5CCC4CC5)nc3)c2n1` [Example 71, 9-({6-[(3S)-1-azabicyclo[2.2.2]oct-3-yloxy]pyridin-3-yl}methyl)-2-ethoxy-8-(5-fluoropyridin-3-yl)-6-methyl-9H-purine] are “potent inhibitory effect against TLR7” and 0.058 µM.
In the same order, the values of `CCOc1nc(C)c2nc(-c3cncc(F)c3)n(Cc3ccc(O[C@H]4CN5CCC4CC5)nc3)c2n1` [Example 72] are “potent inhibitory effect against TLR7” and 0.081 µM.
Compound `CCOc1nc(C)c2nc(-c3cncc(F)c3)n(Cc3ccc(OCC4CN5CCC4CC5)nc3)c2n1` (centres unmarked) [Example 73] showed a half-maximal inhibitory concentration (IC50) of 0.16 µM.
On the same count and under the same terms, to `CCCOc1nc(C)c2nc(-c3cncc(F)c3)n(Cc3ccc(O[C@@H]4CN5CCC4CC5)nc3)c2n1` [Example 75] belongs 0.2 µM; to `CCCOc1nc(C)c2nc(-c3cncc(C)c3)n(Cc3ccc(O[C@@H]4CN5CCC4CC5)nc3)c2n1` [Example 76], 0.4 µM.
`CCOc1nc(N)c2nc(-c3cncc(F)c3)n(Cc3ccc(CO)cc3)c2n1` [Example 77, (4-{[6-Amino-2-ethoxy-8-(5-fluoropyridin-3-yl)-9H-purin-9-yl]methyl}phenyl)methanol] registered an IC50 of 2.4 µM.
Regarding `CCOc1nc(C)c2nc(-c3cncc(F)c3)n(Cc3ccc(CO)cc3)c2n1` [Example 78], the midpoint of inhibition, the IC50, lay at 1.3 µM.
Still for that read-out and setting: under `CCCCOc1nc(C)c2nc(-c3cncc(F)c3)n(Cc3ccc(CO)cc3)c2n1` [Example 79] stands 3.5 µM; under `CCOc1nc(N)c2nc(-c3cncc(F)c3)n(Cc3ccc(CN(C)C)cc3)c2n1` [Example 80, 9-{4-[(Dimethylamino)methyl]benzyl}-2-ethoxy-8-(5-fluoropyridin-3-yl)-9H-purine-6-amine], 0.54 µM.
Consider `CCOc1nc(N)c2nc(-c3cncc(F)c3)n(Cc3ccc(CN4CCN(C)CC4)cc3)c2n1` [Example 81], for which the “inhibitory effect against TLR7” value is given as “potent inhibitory effect against TLR7” and the IC50 was 0.06 µM.
Compound `CCCCOc1nc(N)c2nc(-c3cncc(F)c3)n(Cc3ccc(CN(C)C)cc3)c2n1` [Example 82] displayed an IC50 of 0.4 µM. This counts as sub-micromolar.
The same measure, in the same setting: under `CCCCOc1nc(N)c2nc(-c3cncc(F)c3)n(Cc3ccc(CN4CCOCC4)cc3)c2n1` [Example 83] stands 1.3 µM; under `CCCCOc1nc(N)c2nc(-c3cncc(C)c3)n(Cc3cccc(CN(C)C)c3)c2n1` [Example 85], 0.8 µM; under `CCCCOc1nc(N)c2nc(-c3cncc(F)c3)n(Cc3cccc(CN4CCOCC4)c3)c2n1` [Example 86], 0.3 µM.
The same measure, in the same setting: to `COCCOc1nc(N)c2nc(-c3cncc(F)c3)n(Cc3ccc(CN(C)C)cc3)c2n1` [Example 87] belongs 2.5 µM; to `COCCOc1nc(N)c2nc(-c3cncc(F)c3)n(Cc3ccc(CN4CCOCC4)cc3)c2n1` [Example 88], 0.9 µM; to `COCCOc1nc(N)c2nc(-c3cncc(F)c3)n(Cc3cccc(CN(C)C)c3)c2n1` [Example 89], 1.4 µM.
Same read-out and setting: to `COCCOc1nc(N)c2nc(-c3cncc(F)c3)n(Cc3cccc(CN4CCOCC4)c3)c2n1` [Example 90] belongs 4.2 µM; to `COCCOc1nc(N)c2nc(-c3cncc(F)c3)n(Cc3ccc(CN4CCCCC4)cc3)c2n1` [Example 91], 0.25 µM; to `COCCOc1nc(N)c2nc(-c3cncc(F)c3)n(Cc3ccc(CN4CCC(F)(F)CC4)cc3)c2n1` [Example 92], 0.37 µM.
In turn, `CCOc1nc(N)c2nc(-c3cncc(F)c3)n(Cc3ccc(CN4CCN(C)C(=O)C4)cc3)c2n1` [Example 93] gave an IC50 of 0.29 µM.
As for `CCOc1nc(N)c2nc(-c3cncc(F)c3)n(Cc3ccc(CN4C[C@@H]5C[C@H]4CN5C)cc3)c2n1` [Example 94], the “inhibitory effect against TLR7” value is on record as “potent inhibitory effect against TLR7” and 0.02 µM corresponded to half-maximal inhibition (IC50).
In the same order, the values of `CCOc1nc(N)c2nc(-c3cncc(F)c3)n(Cc3ccc(CN4[C@@H]5CC[C@H]4CN(C)C5)cc3)c2n1` [Example 95] are “potent inhibitory effect against TLR7” and 0.05 µM.
For `CCOc1nc(N)c2nc(-c3cncc(F)c3)n(Cc3ccc(CN4C[C@@H]5C[C@H]4CO5)cc3)c2n1` [Example 96], the “inhibitory effect against TLR7” value is reported as “potent inhibitory effect against TLR7” and the IC50 was found to be 0.08 µM.
`CCOc1nc(N)c2nc(-c3cncc(F)c3)n(Cc3ccc(CN4CCOCC4)cc3)c2n1` [Example 97] had an IC50 of 0.1 µM.
Regarding `CCOc1nc(N)c2nc(-c3cncc(F)c3)n(Cc3ccc(CN4CCCCC4)cc3)c2n1` [Example 98], the “inhibitory effect against TLR7” value is reported as “potent inhibitory effect against TLR7” and inhibition was half-maximal at 0.071 µM (IC50).
`CCOc1nc(N)c2nc(-c3cncc(F)c3)n(Cc3ccc(CN4CCC(F)(F)CC4)cc3)c2n1` [Example 99] returned an IC50 of 0.146 µM. This lies in the sub-micromolar range.
Consider `CCOc1nc(N)c2nc(-c3cncc(F)c3)n(Cc3ccc(CN4CCC4)cc3)c2n1` [Example 100], for which the “inhibitory effect against TLR7” value is on record as “potent inhibitory effect against TLR7” and the IC50 is 0.096 µM.
For the compound `CCOc1nc(N)c2nc(-c3cncc(F)c3)n(Cc3ccc(CN4CC(F)(F)C4)cc3)c2n1` [Example 101], the “inhibitory effect against TLR7” value was “potent inhibitory effect against TLR7” and the concentration for half-maximal inhibition (IC50) worked out at 0.056 µM.
Take `CCOc1nc(N)c2nc(-c3cncc(F)c3)n(Cc3ccc(CN(C)CC(F)F)cc3)c2n1` [Example 102]: inhibition was half-maximal at 0.81 µM (IC50).
The same measure, in the same setting: to `CCOc1nc(N)c2nc(-c3cncc(F)c3)n(Cc3ccc(CN4CC(C#N)C4)cc3)c2n1` [Example 103] belongs 1.6 µM; to `CCOc1nc(N)c2nc(-c3cncc(F)c3)n(Cc3ccc(CN4CCCC4)cc3)c2n1` [Example 104], 0.76 µM.
On to `CCOc1nc(N)c2nc(-c3cncc(F)c3)n(Cc3ccc(CN4CC(C(F)F)C4)cc3)c2n1` [Example 105], for which the “inhibitory effect against TLR7” value is reported as “potent inhibitory effect against TLR7” and inhibition was half-maximal at 0.059 µM (IC50).
For `CCOc1nc(N)c2nc(-c3cncc(F)c3)n(Cc3ccc(CN4CC(C)(O)C4)cc3)c2n1` [Example 106], the “inhibitory effect against TLR7” value is “potent inhibitory effect against TLR7” and the IC50 is 0.062 µM.

As a reminder, the IC50 is the concentration that gives 50% inhibition. A higher IC50 goes with weaker potency.

Source of the values: US10703755B2, “Substituted purine derivative” (SUMITOMO DAINIPPON PHARMA CO., LTD., priority 2016, dated 2020).
